Data published in patent publication EP2849731B1, “FORMULATION FOR LOW BIOAVAILABILITY SUBSTANCES CONTAINING A N-ACETYLCYSTEINE-CHITOSAN SALT” (Labomar S.r.l., priority 2012, dated 2013).

What was measured:
[1] = Curcumin detection by HPLC-UV in the 0.25% w/w solution of Composition A in buffer; assay type: physicochemical; settings: due to incomplete solubility in the buffers
[2] = Intestinal passage test: curcumin passage through the Caco-2 monolayer, HPLC-UV; settings: human
Method: The passage through a monolayer of Caco-2 cells of Composition A at non-cytotoxic concentration is monitored at defined times (0 min- 15 min -30 min and 60 min).
The Caco-2 cells grown as a monolayer on a permeable artificial support reproduce the intestinal epithelial layer (monolayer of cells that are polarized and coupled by tight junctions). The flow through the monolayer allows to establish the permeability of a substance.
After 21 days of growth on insert, the differentiated cells show an apical side, corresponding to the intestinal lumen in vivo, and one that corresponds to the basolateral compartment of the blood and lymphatic circulation of the organism.
The culture medium is aspirated from all cell monolayers before the experiments of permeability. All cell monolayers are washed once with HBSS solution (Hank's Balanced Salt Solution) and left to equilibrate at 37°C for 20 min. […] In parallel, the same amount of substance is divided into equal aliquots and represents the apical sample at time = 0 minutes (0'AP). At the receiving side of the monolayer 1.2 mL of 1X HBSS-Hepes 1% (pH 7.4) are added. […]
Using the mathematical formulas described by Arturrson the relationships are calculated between concentrations of substances in the basolateral (receiver) and in the apical (donor) compartments at each sampling time.

With `COc1cc(/C=C/C(=O)CC(=O)/C=C/c2ccc(O)c(OC)c2)ccc1O` [Curcumin, curcumin] the “loss in title (theoretical curcumin content not detected in the solution)” value [1] was 23% and the Papp A→B at 60 min, 1.404 mM [2] was 0.804 ×10⁻⁶ cm/s.
